According to ChEMBL document CHEMBL5230131, “Modern trends in diuretics development” (Eur J Med Chem, 2020):

Legend:
[1] = tested on: Mus musculus; assay: Diuretic activity in CD-1 mouse assessed as increase in urine volume at 10 to 50 mg/kg,ip with short term administration of furosemide measured after 3 hrs; assay type: functional; conditions: dose 10-50 mg/kg
[2] = tested on: Mus musculus; assay: Diuretic activity in CD-1 mouse assessed as increase in urine volume at 20 mg/kg,ip with long term administration of furosemide measured after 3 hrs; assay type: functional
[3] = tested on: Mus musculus; assay: Diuretic activity in C57BL/6 mouse assessed as increase in urine volume at 10 to 50 mg/kg,ip with short term administration of furosemide measured after 3 hrs; assay type: functional; conditions: dose 10-50 mg/kg
[4] = target: T1, Pendrin (Mus musculus, UniProt Q9R155); assay: Inhibition of mouse Pendrin stably expressed in FRT cells with YFP assessed as inhibition of pendrin mediated Cl-/SCN- exchange by fluorescence assay; assay type: cell-based
T1 sequence (Q9R155 whole entry): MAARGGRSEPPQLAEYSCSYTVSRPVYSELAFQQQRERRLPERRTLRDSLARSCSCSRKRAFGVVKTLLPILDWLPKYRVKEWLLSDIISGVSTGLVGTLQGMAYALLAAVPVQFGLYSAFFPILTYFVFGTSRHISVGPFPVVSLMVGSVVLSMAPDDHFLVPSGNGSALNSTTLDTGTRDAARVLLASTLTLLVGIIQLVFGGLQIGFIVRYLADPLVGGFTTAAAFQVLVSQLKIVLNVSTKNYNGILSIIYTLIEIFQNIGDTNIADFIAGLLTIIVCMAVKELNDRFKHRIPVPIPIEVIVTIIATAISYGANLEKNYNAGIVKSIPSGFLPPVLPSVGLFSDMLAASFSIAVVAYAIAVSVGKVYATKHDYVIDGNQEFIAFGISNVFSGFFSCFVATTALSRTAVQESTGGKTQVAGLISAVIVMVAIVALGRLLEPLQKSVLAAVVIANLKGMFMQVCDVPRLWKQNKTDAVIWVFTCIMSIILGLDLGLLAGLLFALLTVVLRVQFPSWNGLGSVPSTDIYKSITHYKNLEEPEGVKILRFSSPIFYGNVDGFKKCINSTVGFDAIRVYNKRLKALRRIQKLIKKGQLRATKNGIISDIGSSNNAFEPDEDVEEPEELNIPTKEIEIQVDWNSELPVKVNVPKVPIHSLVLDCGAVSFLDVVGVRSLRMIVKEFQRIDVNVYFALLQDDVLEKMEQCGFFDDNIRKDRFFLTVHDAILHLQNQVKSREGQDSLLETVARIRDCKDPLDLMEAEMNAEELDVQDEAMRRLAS

[5] = tested on: Mus musculus; assay: Diuretic activity in C57BL/6 mouse assessed as increase in urine volume at 20 mg/kg,ip with long term administration of furosemide measured after 3 hrs; assay type: functional
[6] = target: T1, Pendrin; assay: Inhibition of mouse Pendrin stably expressed in FRT cells with YFP assessed as inhibition of pendrin mediated Cl-/HCO3- exchange by fluorescence assay; assay type: cell-based
[7] = target: T1, Pendrin; assay: Inhibition of mouse Pendrin stably expressed in FRT cells with YFP assessed as inhibition of pendrin mediated Cl-/NO3- exchange by fluorescence assay; assay type: cell-based
[8] = target: T2, Aquaporin-1 (Homo sapiens, UniProt P29972); assay: Agonist activity at human AQP1 water channel expressed in Xenopus laevis oocytes assessed as inhibition of AQP1-mediated osmotic swelling; assay type: cell-based, Oocyte
T2 sequence (P29972 whole entry): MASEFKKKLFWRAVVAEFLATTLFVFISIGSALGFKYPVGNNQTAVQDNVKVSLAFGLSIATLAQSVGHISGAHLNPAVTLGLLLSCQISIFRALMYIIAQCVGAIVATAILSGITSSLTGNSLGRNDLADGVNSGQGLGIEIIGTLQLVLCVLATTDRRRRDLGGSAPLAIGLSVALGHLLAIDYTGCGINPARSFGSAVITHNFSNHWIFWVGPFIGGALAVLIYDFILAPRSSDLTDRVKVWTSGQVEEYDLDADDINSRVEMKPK

IC50 [4] [µM]	IC50 [6] [µM]	IC50 [7] [µM]	EC50 [8] [µM]	Compound	Activity [1] [%]	Activity [2] [%]	Activity [3] [%]	Activity [5] [%]
9	10	5	–	Cc1n[nH]c(-c2cc(S(=O)(=O)NC3CCCc4ccccc43)c(C)s2)c1C (stereo not drawn)	30	60	30	60
–	–	–	3.3	COC(=O)c1cc(S(=O)(=O)NCc2ccccc2)c(Cl)cc1NCc1ccco1	–	–	–	–
